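All cell lines were grown in 96-well plates and treated with compound for 48 hours. GI50 marks 50% less growth. At the TGI there is no net growth.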
Tests used:
Assay in all cases: inhibition of tumour cell growth, NCI panel, 48 h
[1] = test system: EKVX NSCLC
[2] = test system: NCI-H226 lung
[3] = test system: K-562 leukemia
[4] = test system: DU-145 prostate
[5] = test system: 786-0 renal
[6] = test system: SF-295 CNS
[7] = test system: SK-MEL-2 melanoma
[8] = test system: SNB-75 CNS
[9] = test system: UACC-257 melanoma
[10] = test system: LOX IMVI melanoma

## C=CN(C(=O)N1CCN(c2cc3c(cc2F)c(=O)c(C(=O)O)cn3C2CC2)CC1)c1nc(-c2ccc(OC)cc2)cs1
[1]
  GI50: 4.12 µM
  TGI: > 100 µM
[2]
  GI50: 2900 nM
  TGI: > 100 µM
[3]
  GI50: 3140 nM
  TGI: > 100 µM
[4]
  GI50: 3.93 µM
  TGI: > 100 µM
[5]
  GI50: 3.37 µM
  TGI: 23.1 µM
[6]
  GI50: 2830 nM
  TGI: 8.26 µM
[7]
  GI50: 2590 nM
  TGI: 5.21 µM
[8]
  GI50: 2510 nM
  TGI: 6.7 µM
[9]
  GI50: 2970 nM
  TGI: 7.18 µM
[10]
  GI50: 2450 nM
  TGI: > 100 µM

## O=c1c2c(nc3n1CCS3)[nH]c1cc([N+](=O)[O-])ccc12
[1]
  GI50: > 100 µM
  TGI: > 100 µM
[2]
  GI50: > 100000 nM
  TGI: > 100 µM
[3]
  GI50: > 100000 nM
  TGI: > 100 µM
[4]
  GI50: > 100 µM
  TGI: > 100 µM
[5]
  GI50: > 100 µM
  TGI: > 100 µM
[6]
  GI50: > 100000 nM
  TGI: > 100 µM
[7]
  GI50: > 100000 nM
  TGI: > 100 µM
[8]
  GI50: 57100 nM
  TGI: > 100 µM
[9]
  GI50: > 100000 nM
  TGI: > 100 µM
[10]
  GI50: > 100000 nM
  TGI: > 100 µM

## C/C=C(\C)c1cc(=O)c2c(C)cc3c(c2o1)C(=O)c1c(O)c(C2CC(C)(N(C)C)C(OC(C)=O)C(C)O2)cc(C2CC(N(C)C)C(O)C(C)O2)c1C3=O (stereo not given)
[1]
  TGI: 5.38 µM
[2]
  TGI: 5.57 µM
[3]
  TGI: > 50 µM
[4]
  TGI: > 50 µM
[5]
  TGI: 5.68 µM
[6]
  TGI: > 16.9 µM
[7]
  TGI: 2.87 µM
[8]
  TGI: 7.33 µM
[9]
  TGI: 6.47 µM
[10]
  TGI: 6.91 µM

## CCOC(=O)Cc1c(C)c2cc(C(=O)c3ccccc3)c(O)cc2oc1=O
[1]
  TGI: 88.9 µM
[2]
  TGI: > 100 µM
[3]
  TGI: 71.8 µM
[4]
  TGI: > 100 µM
[5]
  TGI: > 100 µM
[6]
  TGI: > 100 µM
[7]
  TGI: 40.2 µM
[8]
  TGI: 74.7 µM
[9]
  TGI: 80.1 µM
[10]
  TGI: > 100 µM

## CN[C@H]1CN(c2ccc3c(=O)c(C(=O)O)cn(-c4nccs4)c3n2)C[C@@H]1OC
[1]
  GI50: 1.97 µM
  TGI: 7.17 µM
[2]
  GI50: 632 nM
  TGI: 3.24 µM
[3]
  GI50: 632 nM
  TGI: 5.81 µM
[4]
  GI50: 1.28 µM
  TGI: 5.28 µM
[5]
  GI50: 0.426 µM
  TGI: 6.18 µM
[6]
  GI50: 332 nM
  TGI: 2.37 µM
[7]
  GI50: 1510 nM
  TGI: 3.56 µM
[8]
  GI50: 637 nM
  TGI: 2.55 µM
[9]
  GI50: 1110 nM
  TGI: 2.83 µM
[10]
  GI50: 266 nM
  TGI: 3.4 µM

## Oc1ccc(C=Nc2ccccc2O)cc1
[1]
  TGI: > 100 µM
[2]
  TGI: > 100 µM
[3]
  TGI: > 100 µM
[4]
  TGI: 31.6 µM
[5]
  TGI: 67.4 µM
[6]
  TGI: > 100 µM
[7]
  TGI: 57.3 µM
[8]
  TGI: > 100 µM
[9]
  TGI: 65.3 µM
[10]
  TGI: > 100 µM

## COc1ccccc1Nc1cc(O)c2c(=O)cc(-c3ccccc3)oc2c1
[1]
  GI50: 4.83 µM
  TGI: 56 µM
[2]
  GI50: 4380 nM
  TGI: 28.8 µM
[3]
  GI50: 590 nM
  TGI: > 100 µM
[4]
  GI50: 4.35 µM
  TGI: 16.4 µM
[5]
  GI50: 5.15 µM
  TGI: 27 µM
[6]
  GI50: 2980 nM
  TGI: 13.2 µM
[7]
  GI50: 5620 nM
  TGI: 34.2 µM
[8]
  GI50: 2390 nM
  TGI: 8.5 µM
[9]
  GI50: 6720 nM
  TGI: 63.5 µM
[10]
  GI50: 3410 nM
  TGI: > 100 µM

Reference: PubChem BioAssay (NCI)
